From US8858952B2, “Methods and materials for generating T cells” (Mayo Foundation for Medical Education and Research, priority 2009, dated 2014)
Where no end group is shown, it is not given here. [ ]: non-standard residue; d: D form. Ava = NCCCCC(=O)O

Tested on: FR74-specific T cells
Test: Proliferation (thymidine incorporation) of T cells generated ex vivo with polypeptides
Assay type: cell-based, FVB/N mice
Conditions: thymidine incorporation against native FR74; FIG. 5
Procedure: FIG. 5 is a graph plotting proliferation (as measured by thymidine incorporation (CPM)) of T cells treated with the indicated polypeptides. Epitope nesting activates high affinity antigen-specific T cells. T cells were tested for incorporation against native FR74 polypeptide at various concentrations. Each data point is the mean of 3 determinations.
In terms of proliferation, only the dual modified polypeptide was able to generate T cells that were able to proliferate at 10^−9 g/mL (FIG. 5).
In order to determine whether furin cleavage is required, two methods are used: furin insensitive linkers and furin inhibitors. Blockade of enhanced ex vivo expansion mediated by the DC3 peptide using these two methods is powerful evidence, outside of a furin knockout mouse, that furin is required for the actions of DC3. Although it has already been shown that DC3 must be linked to antigen, as a control T cells are expanded using free FR74 mixed with free DC3. To test the role of furin with furin-insensitive linkers, RARR (SEQ ID NO:4) is replaced with VRVV (SEQ ID NO:41) with the polypeptides FR74.1, FR74.3, and FR74.8 as shown in FIG. 17. In parallel with these cultures, cultures are included in which inhibitors are included. […] On day 5, CPG is added to the cultures at 1 μg/mL, and the cells are ready for T cell induction on day 6. […]

Substance: FR74.4: dual conjugated polypeptide: FR74 nested between Ii-key and DC3 (Ac-LRMK[Ava]KDISYLYRFNWNHCGRARRFYPSYHSTPQRP)
- lowest peptide concentration at which generated T cells proliferate: 10^−9 g/mL
